Strand notation (5' to 3'): a small letter for the sugar, then the base; units joined by * are phosphorothioate-linked, units joined directly phosphodiester-linked; [ ] holds rarer units or linkages, { } end groups; capitals alone tell only the bases. e = 2'-O-(2-methoxyethyl) (MOE); k = constrained ethyl (cEt); [5mC] = 5-methylcytosine; d = 2'-deoxy (DNA)
Test system: human PKK mRNA
Test: Antisense inhibition of human PKK mRNA in HepaRG cells, 1,000 nM, MOE/deoxy/cEt oligonucleotides (Example 3)
Assay type: cell-based
In short: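 HepaRG cells at 20,000 per well electroporated with 1,000 nM 16-mer MOE/cEt/deoxy gapmers (phosphorothioate, 5-methylcytosine). After about 24 h, PKK mRNA measured by qRT-PCR with primer probe set RTS3454, normalized to RIBOGREEN total RNA. Reported as percent inhibition versus untreated cells.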

[1] = Table 27, HepaRG cells, 1,000 nM antisense oligonucleotide, human PKK mRNA
[2] = Table 21 experiment, HepaRG cells, electroporation with 1,000 nM antisense oligonucleotide, approx. 24 hours, PKK mRNA by RT-PCR (RTS3454), relative to untreated control cells
[3] = HepaRG cells, 1,000 nM antisense oligonucleotide, Table 29
[4] = PKK mRNA, HepaRG cells, 1,000 nM antisense oligonucleotide, Table 31
[5] = HepaRG cells, electroporation with 1,000 nM antisense oligonucleotide, approximately 24 hours, primer probe set RTS3454, relative to untreated control cells, experiment of Table 24
[6] = Table 20, HepaRG cells, electroporation with 1,000 nM antisense oligonucleotide, approximately 24 hours, PKK mRNA by RT-PCR (RTS3454), relative to untreated control cells
[7] = Table 22 experiment, HepaRG cells, electroporation with 1,000 nM antisense oligonucleotide, approx. 24 hours, PKK mRNA by RT-PCR (RTS3454), relative to untreated control cells
[8] = HepaRG cells, electroporation with 1,000 nM antisense oligonucleotide, approx. 24 hours, PKK mRNA by RT-PCR (RTS3454), relative to untreated control cells, Table 25 experiment
[9] = Table 19, HepaRG cells, electroporation with 1,000 nM antisense oligonucleotide, approximately 24 hours, PKK mRNA by RT-PCR (RTS3454), relative to untreated control cells
[10] = Table 28, HepaRG cells, 1,000 nM antisense oligonucleotide, human PKK mRNA
[11] = HepaRG cells, electroporation with 1,000 nM antisense oligonucleotide, approximately 24 hours, primer probe set RTS3454, relative to untreated control cells, experiment of Table 23
[12] = Table 30, human PKK mRNA, HepaRG cells, 1,000 nM antisense oligonucleotide

## 548355 (antisense eG*e[5mC]*kA*dT*d[5mC]*d[5mC]*dT*d[5mC]*d[5mC]*d[5mC]*dT*dA*dG*kT*kT*eG) [compound 548355]
[1]
  % inhibition: 47%

## 548339 (antisense eA*e[5mC]*kA*dT*dG*dT*dG*dG*dG*dA*dT*d[5mC]*dA*kG*kA*eG) [compound 548339]
[1]
  % inhibition: 37%

## 548314 (eA*e[5mC]*kA*dA*d[5mC]*d[5mC]*dT*dG*dT*d[5mC]*d[5mC]*dA*dT*kT*k[5mC]*e[5mC]; antisense) [compound 548314]
[1]
  % inhibition: 43%

## 547837 (eT*eG*kT*d[5mC]*d[5mC]*dA*dG*dA*dA*dA*d[5mC]*dT*dG*k[5mC]*kA*e[5mC]; antisense) [compound 547837]
[2]
  % inhibition: 51%

## 547771 (antisense e[5mC]*eT*kT*dG*dG*dA*dG*dG*dT*dG*dA*dG*dT*k[5mC]*kT*e[5mC]) [compound 547771]
[2]
  % inhibition: 60%

## 548589 (eT*e[5mC]*kT*dG*dT*dT*dA*d[5mC]*d[5mC]*dT*dT*dG*dA*kG*kG*eA; antisense) [compound 548589]
[3]
  % inhibition: 40%

## 548561 (antisense eT*eG*kT*dA*dG*dT*dA*dT*d[5mC]*d[5mC]*dA*dG*dA*kG*kT*eA) [compound 548561]
[3]
  % inhibition: 46%

## 548666 (antisense eT*e[5mC]*kT*d[5mC]*d[5mC]*dA*dT*dA*dG*dT*dG*dA*dG*kA*k[5mC]*eG) [compound 548666]
[4]
  % inhibition: 1%

## 548616 (antisense eA*eT*kT*dG*dG*dT*dG*dG*d[5mC]*dG*dG*dG*dA*kT*k[5mC]*eG) [compound 548616]
[4]
  % inhibition: 35%

## 548027 (eG*eT*kG*dT*d[5mC]*d[5mC]*dT*dA*dT*dG*dA*dG*dT*kG*kA*e[5mC]; antisense) [compound 548027]
[5]
  % inhibition: 18%

## 547901 (e[5mC]*eT*kG*dT*dA*d[5mC]*dT*dT*dT*dA*dA*dT*dA*kG*kG*e[5mC]; antisense) [compound 547901]
[6]
  % inhibition: 77%
[7]
  % inhibition: 85%

## 548173 (e[5mC]*eT*k[5mC]*dA*dG*dT*dT*dG*d[5mC]*dG*dA*d[5mC]*d[5mC]*kT*k[5mC]*eG; antisense) [compound 548173]
[8]
  % inhibition: 51%

## 548101 (antisense eT*eA*k[5mC]*dT*d[5mC]*dA*dG*d[5mC]*dG*dA*d[5mC]*dT*dT*kT*kG*eG) [compound 548101]
[9]
  % inhibition: 47%

## 548495 (antisense eT*eT*kG*dT*dG*dA*d[5mC]*d[5mC]*d[5mC]*d[5mC]*d[5mC]*d[5mC]*dA*k[5mC]*k[5mC]*eG) [compound 548495]
[10]
  % inhibition: 55%

## 548556 (antisense eA*eT*kG*d[5mC]*dA*dT*dG*d[5mC]*d[5mC]*dT*dA*d[5mC]*d[5mC]*k[5mC]*kA*eA) [compound 548556]
[3]
  % inhibition: 43%

## 548205 (eT*e[5mC]*kA*dA*dT*d[5mC]*dT*dG*dA*d[5mC]*dT*dA*dG*kT*kG*eA; antisense) [compound 548205]
[8]
  % inhibition: 14%

## 547984 (antisense e[5mC]*eG*kA*dA*dT*d[5mC]*dA*dT*d[5mC]*dT*dT*dT*dG*kT*kG*e[5mC]) [compound 547984]
[11]
  % inhibition: 55%

## 548332 (antisense eG*eA*kT*dG*dA*dA*dA*dT*dG*dT*dG*d[5mC]*dA*k[5mC]*k[5mC]*eT) [compound 548332]
[1]
  % inhibition: 46%

## 547757 (antisense eG*eA*kG*dT*d[5mC]*dT*d[5mC]*dT*dT*dG*dT*d[5mC]*dA*k[5mC]*kT*eT) [compound 547757]
[2]
  % inhibition: 69%

## 548213 (eG*eA*k[5mC]*dA*dG*d[5mC]*d[5mC]*d[5mC]*dA*d[5mC]*d[5mC]*dA*dA*k[5mC]*kA*eA; antisense) [compound 548213]
[8]
  % inhibition: 70%

## 548372 (eG*eA*kT*dA*d[5mC]*d[5mC]*dT*dT*dT*d[5mC]*d[5mC]*dA*d[5mC]*kT*k[5mC]*e[5mC]; antisense) [compound 548372]
[1]
  % inhibition: 61%

## 548164 (eG*eA*k[5mC]*d[5mC]*dT*d[5mC]*dG*d[5mC]*dA*dT*dT*dG*dT*k[5mC]*kA*eG; antisense) [compound 548164]
[8]
  % inhibition: 40%

## 548620 (antisense eT*eG*kG*dT*dT*dG*dG*dT*dG*dG*d[5mC]*dG*dG*kG*kA*eT) [compound 548620]
[4]
  % inhibition: 24%

## 548500 (antisense eA*eT*kT*dG*d[5mC]*dT*d[5mC]*dA*dG*dG*d[5mC]*d[5mC]*d[5mC]*k[5mC]*k[5mC]*eT) [compound 548500]
[10]
  % inhibition: 29%

## 547792 (antisense eT*e[5mC]*k[5mC]*dA*d[5mC]*dA*dG*dG*dA*dA*dA*d[5mC]*dT*kG*kT*eA) [compound 547792]
[2]
  % inhibition: 31%

## 547840 (antisense eT*eT*kG*d[5mC]*dT*dT*d[5mC]*dA*dA*dG*dG*dA*dA*kT*kG*eT) [compound 547840]
[2]
  % inhibition: 36%

## 547906 (eT*eT*kA*d[5mC]*dT*d[5mC]*dA*dG*d[5mC]*dA*d[5mC]*d[5mC]*dT*kT*kT*eA; antisense) [compound 547906]
[6]
  % inhibition: 59%
[7]
  % inhibition: 70%

## 547935 (eA*e[5mC]*kT*d[5mC]*dG*dA*dT*dT*dT*dT*d[5mC]*d[5mC]*dA*kT*kA*e[5mC]; antisense) [compound 547935]
[11]
  % inhibition: 27%

## 548114 (antisense eT*eG*kG*dT*dG*dA*d[5mC]*dT*dG*d[5mC]*dA*dT*d[5mC]*kT*kG*eA) [compound 548114]
[9]
  % inhibition: 70%

## 548653 (antisense eT*e[5mC]*kG*dG*d[5mC]*dT*d[5mC]*d[5mC]*dT*dG*dG*d[5mC]*dA*kG*k[5mC]*eA) [compound 548653]
[4]
  % inhibition: 46%

## 548068 (e[5mC]*eA*kA*d[5mC]*dA*dG*dT*dT*dG*dG*dT*dA*dT*kA*kA*eA; antisense) [compound 548068]
[5]
  % inhibition: 0%

## 548100 (antisense eA*e[5mC]*kT*d[5mC]*dA*dG*d[5mC]*dG*dA*d[5mC]*dT*dT*dT*kG*kG*eT) [compound 548100]
[9]
  % inhibition: 25%

## 548441 (antisense eT*e[5mC]*k[5mC]*dT*dA*dT*dA*dA*d[5mC]*dA*dG*dT*dA*kT*k[5mC]*eA) [compound 548441]
[12]
  % inhibition: 42%

## 548456 (eT*eA*kT*dA*dA*d[5mC]*dA*dG*dT*dA*dT*d[5mC]*dA*k[5mC]*k[5mC]*eG; antisense) [compound 548456]
[12]
  % inhibition: 52%

## 547836 (eT*e[5mC]*k[5mC]*dA*dG*dA*dA*dA*d[5mC]*dT*dG*d[5mC]*dA*k[5mC]*k[5mC]*eT; antisense) [compound 547836]
[2]
  % inhibition: 50%

## 548234 (eT*eT*kA*dT*dT*dG*dT*dA*dG*d[5mC]*d[5mC]*dA*dT*kA*k[5mC]*eA; antisense) [compound 548234]
HepaRG cells, electroporation with 1,000 nM antisense oligonucleotide, approx. 24 hours, PKK mRNA by RT-PCR (RTS3454), relative to untreated control cells, Table 26 experiment
  % inhibition: 17%

## 548150 (e[5mC]*eA*kG*dA*d[5mC]*dA*dT*dT*dG*dT*d[5mC]*d[5mC]*dT*k[5mC]*kA*eG; antisense) [compound 548150]
[9]
  % inhibition: 60%

## 548472 (e[5mC]*e[5mC]*k[5mC]*dA*dA*dT*dA*d[5mC]*dA*dG*dG*dG*d[5mC]*k[5mC]*kA*eG; antisense) [compound 548472]
[10]
  % inhibition: 0%

## 548465 (e[5mC]*eT*kG*dT*dA*d[5mC]*d[5mC]*dT*dA*dT*dA*dA*d[5mC]*kT*kG*eT; antisense) [compound 548465]
[10]
  % inhibition: 0%

## 548382 (eG*eA*kG*d[5mC]*dA*dA*dA*dT*dA*d[5mC]*dA*dG*dT*k[5mC]*k[5mC]*eA; antisense) [compound 548382]
[12]
  % inhibition: 19%
